From patent publication US20170298090A1, “Modulators of ROR-gamma Receptors, Composition and Use Thereof” (KULING THERAPEUTICS, priority 2016, published 2017)
Entries after “also recorded” stand apart in the source; their conditions may differ. Like-named read-outs stand apart in the source and are kept apart here.

Experiments:
Th17 cells [1] = test: Th17 differentiation of mouse naive CD4+ T cells, IL-17/IL-17F intracellular staining; format: cell-based; conditions: for inhibition of TH17 differentiation (in words): 2-10 μM, in vitro culture; for IL-17 and IL-17F expression in Th17 cells (in words): FIG. 1
Protocol: T-cell Isolation and Differentiation—Mouse T cell differentiation was performed and analyzed by intracellular staining as described. […] The Journal of biological chemistry 286: 22707-22710 (2011); Wang, X., et al. Transcription of Il17 and Il17f is controlled by conserved noncoding sequence 2. Immunity 36: 23-31 (2012). Briefly, mouse naïve CD4^+ T cells (CD4^+CD25^−CD62L^hi-CD44^lo) were isolated from spleens and lymph nodes by FACS sorting. Th17 differentiation was performed with 15 ng ml^− IL-6 and 2.5 ng ml^− TGF-β in the presence of 1 μg ml^− anti-CD3 (plate bound) and 1 μg ml^− anti-CD28 (plate bound) for 4 days. When indicated, different concentrations of UA, KL001, other UA analogs or small molecules (dissolved in DMSO) were added at the beginning of Th17 differentiation. The mature Th17 cells were restimulated with 50 ng ml^− PMA (phorbol 12-myristate 13-acetate) and 500 ng ml^− inomycin in the presence of BD GolgiStop™ for 6 hrs, stained intracellularly for IL-17 and IL-17F, and then analyzed by flow cytometry.
UA and its analogs KL001 to KL005, 201702-1 to 201702-4, and 201509-1 to 201509-3 inhibit TH17 differentiation. Mouse naïve CD4+ T cells were cultured under Th17 polarizing condition in the presence of above chemicals (2-10 μM) or DMSO control (Ctrl) for 4 days and then restimulated for IL-17 and IL-17F staining (FIG. 1). […] The Journal of biological chemistry 286: 22707-22710 (2011), 2 μM UA inhibited ˜80% IL-17 expression and ˜50% IL-17F expression, both of which were reported to contribute TH17-mediated autoimmune diseases Yang, X. O., Chang, S. H., Park, H. et al. Regulation of inflammatory responses by IL-17F. The Journal of experimental medicine, 205: 1063-1075 (2008). […] (FIG. 1), whereas other UA analogs inhibited TH17 differentiation at a less degree (FIG. 1 and FIG. 6).

[2] = tested on: experimental autoimmune encephalomyelitis (EAE); test: MOG-induced EAE, preventative disease model; format: in vivo, mice; conditions: for IL-17 expression of T cells infiltrated into the central nerve system: 100 mg/kg i.p. every other day; for effect on EAE disease (in words): 100 mg/kg i.p. every other day after first MOG immunization
Protocol: (§1) MOG-induced Experimental Autoimmune Encephalomyelitis (EAE)—EAE induction were performed by immunizing mice twice with MOG35-55 peptide (amino acids 35-55; MEVGWYRSPFSROVHLYRNGK) emulsified in CFA followed by pertussis toxin injection with slight modifications, and analyzed as previously described. […] The Journal of biological chemistry 286: 22707-22710 (2011); Wang, X., et al. Transcription of Il17 and Il17f is controlled by conserved noncoding sequence 2. Immunity 36: 23-31 (2012). Briefly, the disease scores were assigned on a scale of 0-5 as follows: 0, none; 1, limp tail or waddling gait with tail tonicity; 2, wobbly gait; 3, hindlimb paralysis; 4, hindlimb and forelimb paralysis; 5, death.
The Journal of biological chemistry 286: 22707-22710 (2011).

[3] = tested on: experimental autoimmune encephalomyelitis (EAE); test: MOG-induced EAE, therapeutic disease model; format: in vivo, mice; conditions: ~250 mg/kg gavage twice daily from Day 9
Protocol: as §1
To test the therapeutic potential of KL001, EAE was first induced by MOG immunization and PTX injection as described.

[4] = tested on: imiquimod (IMQ)-induced psoriasis; test: IMQ-induced psoriasis, preventative disease model; format: in vivo, C57BL/6 mice; conditions: ~250 mg/kg gavage twice daily
Protocol: IMQ-induced psoriasis model—The mouse psoriasis model was induced according to previous described with minor modifications. van der Fits L, et al. (2009) Imiquimod-induced psoriasis-like skin inflammation in mice is mediated via the IL-23/IL-17 axis. J Immunol 182(9):5836-5845. Briefly, 7-9 weeks old female C57BL/6 mice were used to induce psoriasis. On day 0, the hair was removed from the dorsal skin of the mice after anaesthetizing with pentobarbital (˜0.2 ml/20 g body weight by i.p.). On day 1, psoriasis was induced […] by applying 62.5 mg 5% imiquimod cream to the dorsal skin after anaesthesia on a daily base. In the preventative disease model, KL001 (dissolved in 0.5% methylcellulose (MC)) or 0.5% MC (control group) was orally administrated into C57BL/6 mice by gavage at a dosage of ˜250 mg/kg body weight twice daily starting 2 days before induction of psoriasis (Day −2). The mice were then sacrificed on Day 5, and the skin tissues were then removed for H&E staining and mRNA expression analysis. […] The expression of Il17, Il17f and Rorc (encoding RORγt) were then quantified by realtime PCR and normalized to Actb gene by using the following primers: Actb, F: […]/R (SEQ ID NO.1): […] […]

Th17 cells [5] = conditions: previous studies (Xu et al. 2011); read-out: IC50 in inhibiting Th17 differentiation; cited from earlier work
STAT3 = STAT3 (Homo sapiens, UniProt P40763); conditions: previous studies; cited from earlier work
Sequence of STAT3 (P40763 whole entry, species assumed): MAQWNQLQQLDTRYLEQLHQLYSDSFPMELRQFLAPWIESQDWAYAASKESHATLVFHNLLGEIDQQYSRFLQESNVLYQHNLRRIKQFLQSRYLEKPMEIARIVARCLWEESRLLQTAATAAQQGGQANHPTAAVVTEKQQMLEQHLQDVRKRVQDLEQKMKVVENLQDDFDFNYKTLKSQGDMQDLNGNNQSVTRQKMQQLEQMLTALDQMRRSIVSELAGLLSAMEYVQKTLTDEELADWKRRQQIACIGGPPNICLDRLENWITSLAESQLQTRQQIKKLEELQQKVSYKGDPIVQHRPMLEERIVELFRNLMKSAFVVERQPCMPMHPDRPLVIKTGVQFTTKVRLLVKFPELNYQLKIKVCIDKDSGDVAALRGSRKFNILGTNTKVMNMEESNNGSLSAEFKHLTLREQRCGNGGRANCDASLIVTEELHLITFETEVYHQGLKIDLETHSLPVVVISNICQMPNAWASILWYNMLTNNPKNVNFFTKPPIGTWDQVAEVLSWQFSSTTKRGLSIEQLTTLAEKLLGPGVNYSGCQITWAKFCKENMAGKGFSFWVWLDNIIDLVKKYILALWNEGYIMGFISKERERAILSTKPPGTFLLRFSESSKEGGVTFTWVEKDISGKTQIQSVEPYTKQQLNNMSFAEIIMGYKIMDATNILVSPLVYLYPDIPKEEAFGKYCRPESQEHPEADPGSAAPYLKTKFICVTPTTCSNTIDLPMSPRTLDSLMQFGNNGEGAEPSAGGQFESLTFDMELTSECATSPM

rodents = conditions: cited from earlier work
[6] = 2 μM, Th17 polarizing condition, 4 days

SMILES	inhibition of TH17 differentiation (in words) (Th17 cells [1]; 4 days)	IL-17 and IL-17F expression in Th17 cells (in words) (Th17 cells [1])	IC50 (Th17 cells [1]; Mus musculus, CD4+ T, readout of IL-17 staining, titration, read-out: IC50 in inhibiting Th17 differentiation) [nM]	IL-17 expression of T cells infiltrated into the central nerve system [2]	effect on EAE disease (in words) [2]	effect on EAE disease (in words) [3]	reduction of average disease scores vs control group [3] [%]	psoriatic symptoms, redness and roughness of the skin (in words) [4]	expression of IL-17 in skin samples ([4]; mRNA)	inhibition of IL-17F expression (Th17 cells [1]; [6]) [%]	inhibition of IL-17 expression (Th17 cells [1]; [6]) [%]	IC50 (Th17 cells [5]) [nM]	concentration at which inhibitory activity on STAT3 was observed (STAT3)	acute toxicity LD50 (rodents; intraperitoneal injection (Lee et al. 2010)) [mg/kg]	acute toxicity LD50 (rodents; oral administration (Lee et al. 2010)) [mg/kg]
Cc1oc(=O)oc1COC(=O)[C@]12CC[C@@H](C)[C@H](C)[C@H]1C1=CC[C@@H]3[C@@]4(C)CC[C@H](O)C(C)(C)[C@@H]4CC[C@@]3(C)[C@]1(C)CC2 [KL001, (5-methyl-2-oxo-1,3-dioxol-4-yl)methyl (1S,2R,4aS,6aS,6bR,8aR,10S,12aR,12bR,14bS)-10-hydroxy-1,2,6a,6b,9,9,12a-heptamethyl-1,3,4,5,6,6a,6b,7,8,8a,9,10,11,12,12a,12b,13,14b-octadecahydropicene-4a(2H)-carboxylate]	comparable level to UA; also recorded: comparable efficacy with UA	inhibited	~490	significantly reduced	greater degree than UA; also recorded: ameliorated	significantly reduced the disease severity; also recorded: ameliorated	50	visually and greatly reduced; also recorded: ameliorated psoriatic symptoms	notably reduced						
C[C@H]1[C@H](C)CC[C@]2(C(=O)O)CC[C@]3(C)C(=CC[C@@H]4[C@@]5(C)CC[C@H](O)C(C)(C)[C@@H]5CC[C@]43C)[C@H]12 [UA, ursolic acid, reference compound]	inhibit	inhibited		significantly reduced	ameliorated	did not affect; also recorded: but not UA, ameliorated				~50	~80	680	higher than 25 μM	> 637	8330
